Measurements reported in ChEMBL document CHEMBL1201862, “PubChem BioAssay data set” (2004).
The source made the active and inactive calls.

How the values were obtained:
[1] = target: E3 ubiquitin-protein ligase Mdm2 (Homo sapiens, UniProt Q00987); assay: MDM2-luc reporter signal enhancers, multi-concentration potency testing, MDM2 ubiquitin-protein ligase inhibitor program, whole-cell format, luminescence detection, 384-well microplate (AID 1394); assay type: functional;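 also: MDM2 E3 inhibitors raise luminescence so EC50 is for signal enhancement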
E3 ubiquitin-protein ligase Mdm2, sequence (Q00987 whole entry): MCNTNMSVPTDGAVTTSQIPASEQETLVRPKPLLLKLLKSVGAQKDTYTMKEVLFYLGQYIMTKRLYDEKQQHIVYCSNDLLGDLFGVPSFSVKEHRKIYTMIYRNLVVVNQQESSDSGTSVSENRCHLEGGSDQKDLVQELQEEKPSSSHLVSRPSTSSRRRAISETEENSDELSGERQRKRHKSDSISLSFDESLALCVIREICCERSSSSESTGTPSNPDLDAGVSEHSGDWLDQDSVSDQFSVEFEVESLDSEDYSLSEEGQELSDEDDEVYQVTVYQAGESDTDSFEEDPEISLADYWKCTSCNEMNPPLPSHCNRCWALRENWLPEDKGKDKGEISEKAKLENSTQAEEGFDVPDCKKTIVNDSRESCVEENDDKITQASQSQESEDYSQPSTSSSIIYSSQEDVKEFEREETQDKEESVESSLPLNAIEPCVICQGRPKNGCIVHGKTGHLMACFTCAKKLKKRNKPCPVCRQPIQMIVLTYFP

Large T antigen = Large T antigen (Simian virus 40, UniProt P03070); assay type: functional, Betapolyomavirus macacae;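 also: Confirmatory-stage PubChem screen for compounds that inhibit SV40 T antigen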
Protein Tat = target: T1, Protein Tat (Human immunodeficiency virus type 1 group M subtype B (isolate HXB2)(HIV-1), UniProt P04608); assay type: functional;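 also: tat binding to TAR RNA read out by fluorescence polarization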
T1 sequence (P04608 whole entry): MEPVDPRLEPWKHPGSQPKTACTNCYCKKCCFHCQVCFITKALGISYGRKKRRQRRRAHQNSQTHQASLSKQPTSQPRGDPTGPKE

[2] = target: Glutathione-S-transferase (Schistosoma japonicum, UniProt Q26513); assay: GST-antibody interaction or FRET quenching – biochemical, TR-FRET, artefact control for Vif-APOBEC3G degradation inhibitor project, dose response (AID 1117362); assay type: functional
Glutathione-S-transferase, sequence (Q26513 whole entry): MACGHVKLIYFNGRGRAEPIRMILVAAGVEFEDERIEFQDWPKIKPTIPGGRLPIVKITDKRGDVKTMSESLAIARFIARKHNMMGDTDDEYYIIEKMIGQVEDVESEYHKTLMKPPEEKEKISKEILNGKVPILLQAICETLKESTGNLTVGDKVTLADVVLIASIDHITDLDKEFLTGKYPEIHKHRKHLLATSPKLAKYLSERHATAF

[3] = target: Photoreceptor-specific nuclear receptor (Homo sapiens, UniProt Q9Y5X4); assay: ligands suppressing NR2E3 nuclear receptor activity – biochemical, TR-FRET, dose response (AID 463256); assay type: functional
Photoreceptor-specific nuclear receptor, sequence (Q9Y5X4 whole entry): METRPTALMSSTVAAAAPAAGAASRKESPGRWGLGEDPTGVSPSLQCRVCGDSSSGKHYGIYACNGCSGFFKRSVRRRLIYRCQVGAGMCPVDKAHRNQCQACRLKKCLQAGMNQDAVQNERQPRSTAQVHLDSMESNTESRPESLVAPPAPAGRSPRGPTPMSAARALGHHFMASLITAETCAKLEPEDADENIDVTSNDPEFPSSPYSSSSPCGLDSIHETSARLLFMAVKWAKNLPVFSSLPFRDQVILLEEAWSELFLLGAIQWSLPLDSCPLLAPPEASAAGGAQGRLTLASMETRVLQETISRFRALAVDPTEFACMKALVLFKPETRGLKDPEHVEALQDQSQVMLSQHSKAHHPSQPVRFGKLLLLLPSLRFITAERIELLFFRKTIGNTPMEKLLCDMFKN

[4] = target: Peroxisome proliferator-activated receptor gamma/Nuclear receptor corepressor 2 (Homo sapiens, UniProt P37231+Q9Y618); assay: Counterscreen for NR2E3 inverse agonists: TR-FRET-based biochemical high throughput dose response assay to identify inverse agonists of the interaction between peroxisome proliferator-activated receptor gamma (PPARg) and nuclear receptor co-repressor 2 (NCOR2).; assay type: functional
Peroxisome proliferator-activated receptor gamma/Nuclear receptor corepressor 2, sequence (P37231 whole entry): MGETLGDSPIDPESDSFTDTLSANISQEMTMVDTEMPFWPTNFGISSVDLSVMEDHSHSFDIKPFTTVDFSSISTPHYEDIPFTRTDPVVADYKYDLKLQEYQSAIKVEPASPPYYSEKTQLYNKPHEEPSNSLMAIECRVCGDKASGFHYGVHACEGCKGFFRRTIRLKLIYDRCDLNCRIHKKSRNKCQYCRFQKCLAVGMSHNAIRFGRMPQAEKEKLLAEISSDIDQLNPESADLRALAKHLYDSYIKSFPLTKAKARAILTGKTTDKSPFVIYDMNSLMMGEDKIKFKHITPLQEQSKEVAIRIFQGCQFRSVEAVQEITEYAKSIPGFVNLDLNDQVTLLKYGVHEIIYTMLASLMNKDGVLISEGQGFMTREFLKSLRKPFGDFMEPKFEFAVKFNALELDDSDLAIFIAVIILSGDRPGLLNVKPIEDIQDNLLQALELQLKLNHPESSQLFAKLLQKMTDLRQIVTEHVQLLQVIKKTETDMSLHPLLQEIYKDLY
Peroxisome proliferator-activated receptor gamma/Nuclear receptor corepressor 2, sequence (Q9Y618 whole entry): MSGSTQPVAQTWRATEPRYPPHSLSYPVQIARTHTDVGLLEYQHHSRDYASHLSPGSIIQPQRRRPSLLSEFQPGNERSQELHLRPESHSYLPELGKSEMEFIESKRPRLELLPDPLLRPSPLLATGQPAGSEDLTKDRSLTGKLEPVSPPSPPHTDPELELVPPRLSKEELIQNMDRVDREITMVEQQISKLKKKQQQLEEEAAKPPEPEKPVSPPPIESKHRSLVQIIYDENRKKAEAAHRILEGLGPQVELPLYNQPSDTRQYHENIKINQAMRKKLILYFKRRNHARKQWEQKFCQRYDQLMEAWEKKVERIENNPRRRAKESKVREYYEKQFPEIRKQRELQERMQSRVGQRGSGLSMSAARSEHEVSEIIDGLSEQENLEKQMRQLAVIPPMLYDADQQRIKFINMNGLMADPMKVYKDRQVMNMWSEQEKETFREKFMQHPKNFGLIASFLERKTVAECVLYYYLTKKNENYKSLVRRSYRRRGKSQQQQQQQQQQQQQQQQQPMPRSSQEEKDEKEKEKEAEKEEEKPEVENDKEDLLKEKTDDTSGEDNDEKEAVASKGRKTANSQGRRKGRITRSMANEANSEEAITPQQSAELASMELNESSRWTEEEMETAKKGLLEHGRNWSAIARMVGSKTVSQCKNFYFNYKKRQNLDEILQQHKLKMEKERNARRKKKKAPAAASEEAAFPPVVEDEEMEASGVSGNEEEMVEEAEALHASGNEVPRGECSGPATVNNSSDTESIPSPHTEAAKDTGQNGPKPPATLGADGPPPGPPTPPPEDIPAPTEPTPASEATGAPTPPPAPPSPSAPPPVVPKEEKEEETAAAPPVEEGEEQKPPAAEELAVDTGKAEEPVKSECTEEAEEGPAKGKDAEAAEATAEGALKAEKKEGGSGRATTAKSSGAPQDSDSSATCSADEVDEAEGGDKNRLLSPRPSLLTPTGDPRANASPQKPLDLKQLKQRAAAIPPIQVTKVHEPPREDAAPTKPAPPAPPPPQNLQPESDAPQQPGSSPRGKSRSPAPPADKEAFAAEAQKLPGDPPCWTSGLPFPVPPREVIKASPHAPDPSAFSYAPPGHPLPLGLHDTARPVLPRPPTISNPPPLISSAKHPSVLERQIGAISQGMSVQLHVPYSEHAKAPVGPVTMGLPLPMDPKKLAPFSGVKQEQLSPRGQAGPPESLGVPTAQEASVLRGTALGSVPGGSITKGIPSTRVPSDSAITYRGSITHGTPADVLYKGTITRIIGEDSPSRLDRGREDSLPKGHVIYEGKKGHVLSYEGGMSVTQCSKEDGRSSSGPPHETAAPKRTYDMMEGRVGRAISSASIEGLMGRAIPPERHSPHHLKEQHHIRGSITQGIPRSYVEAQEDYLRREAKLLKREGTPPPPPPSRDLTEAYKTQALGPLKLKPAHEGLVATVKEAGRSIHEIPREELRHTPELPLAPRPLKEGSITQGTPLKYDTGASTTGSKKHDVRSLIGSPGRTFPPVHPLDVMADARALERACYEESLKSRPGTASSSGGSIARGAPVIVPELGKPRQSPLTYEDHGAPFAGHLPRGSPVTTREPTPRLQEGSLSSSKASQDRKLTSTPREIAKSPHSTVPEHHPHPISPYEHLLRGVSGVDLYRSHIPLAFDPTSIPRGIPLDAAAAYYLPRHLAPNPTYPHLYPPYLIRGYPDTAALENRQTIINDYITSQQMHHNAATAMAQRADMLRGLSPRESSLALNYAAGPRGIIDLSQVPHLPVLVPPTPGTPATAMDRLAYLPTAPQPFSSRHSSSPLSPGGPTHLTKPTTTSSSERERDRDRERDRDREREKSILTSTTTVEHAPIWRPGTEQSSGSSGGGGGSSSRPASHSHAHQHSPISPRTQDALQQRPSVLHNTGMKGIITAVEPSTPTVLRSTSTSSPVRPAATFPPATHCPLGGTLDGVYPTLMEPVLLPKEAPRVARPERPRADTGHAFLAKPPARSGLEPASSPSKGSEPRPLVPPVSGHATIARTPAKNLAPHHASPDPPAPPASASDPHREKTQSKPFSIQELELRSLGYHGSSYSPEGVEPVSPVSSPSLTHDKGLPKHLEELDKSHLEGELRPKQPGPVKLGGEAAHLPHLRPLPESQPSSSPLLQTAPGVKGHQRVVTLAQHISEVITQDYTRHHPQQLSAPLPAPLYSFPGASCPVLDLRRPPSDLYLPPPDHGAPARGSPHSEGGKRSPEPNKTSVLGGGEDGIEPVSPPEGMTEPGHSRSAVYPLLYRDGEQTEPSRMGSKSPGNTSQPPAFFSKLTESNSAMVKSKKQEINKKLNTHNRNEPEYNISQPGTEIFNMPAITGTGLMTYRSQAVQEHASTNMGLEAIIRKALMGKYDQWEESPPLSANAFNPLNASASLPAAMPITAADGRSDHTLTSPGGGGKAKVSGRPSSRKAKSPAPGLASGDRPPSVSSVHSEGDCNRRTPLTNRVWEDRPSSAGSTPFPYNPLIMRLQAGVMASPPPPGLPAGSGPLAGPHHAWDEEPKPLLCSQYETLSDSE

[5] = melanocyte viability loss, MITF-dependent cells, cell-based, plate reader, dry powder, cytotoxicity control, dose response (AID 651920); assay type: functional
[6] = viability loss in MITF-independent A375 cells – cell-based, CellTiter-Glo luminescence, dry powder, set 7, counter-screen for MITF inhibitor project, dose response (AID 624490); assay type: functional; conditions: A-375
[7] = growth inhibition of SK-MEL-5 melanoma cells – cell-based, CellTiter-Glo luminescence, dry powder, set 8, orthogonal assay for MITF inhibitor project, dose response (AID 651586); assay type: functional
[8] = MITF Measured in Cell-Based System Using Plate Reader - 2084-01_Inhibitor_Dose_DryPowder_Activity_Set7.; assay type: functional
[9] = viability loss in MITF-independent A375 cells – cell-based, CellTiter-Glo luminescence, dry powder, set 6, counter-screen for MITF inhibitor project, dose response (AID 624488); assay type: functional; conditions: A-375
[10] = MITF Orthogonal Assay: MALME3 CTG Assay Measured in Cell-Based System Using Plate Reader - 2084-04_Inhibitor_Dose_DryPowder_Activity_Set6.; assay type: functional; conditions: MALME-3
[11] = inhibitors of TRPM1-promoter reporter in SK-MEL-5 – cell-based, luciferase, dry powder, set 9, MITF inhibitor project, dose response (AID 651588); assay type: functional
[12] = cytotoxicity in MITF-independent A375 cells – cell-based, CellTiter-Glo luminescence, dry powder, set 9, counter-screen for MITF modulator project, dose response (AID 651591); assay type: functional; conditions: A-375
[13] = MITF Measured in Cell-Based System Using Plate Reader - 2084-01_Inhibitor_Dose_DryPowder_Activity_Set6.; assay type: functional
[14] = MITF Orthogonal Assay: SK-MEL-5 CTG Assay Measured in Cell-Based System Using Plate Reader - 2084-02_Inhibitor_Dose_DryPowder_Activity_Set5.; assay type: functional
[15] = growth inhibition of MALME3 cells – cell-based, CellTiter-Glo luminescence, dry powder, set 5, orthogonal assay for MITF inhibitor project, dose response (AID 651584); assay type: functional; conditions: MALME-3
[16] = cytotoxicity in melanoma parental cells – cell-based, CellTiter-Glo, dry powder, set 6, MITF inhibitor project, dose response (AID 624429); assay type: functional; conditions: SK-MEL-5
[17] = cytotoxicity in MITF-independent A375 cells – cell-based, CellTiter-Glo luminescence, dry powder, set 4, counter-screen for MITF inhibitor project, dose response (AID 624364); assay type: functional; conditions: A-375;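 also: A375 melanoma cells are MITF independent so this is a counter screen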
INS1 = assay: INS-1E survival protection against cytokine death – cell-based, luminescence, retest, dose response (AID 449756); assay type: functional; conditions: Rattus norvegicus;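 also: cell death triggered by IL-1 beta plus TNF-alpha plus IFN-gamma mixture; protective hits raise ATP signal compared with cytokine alone wells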
[18] = target: T2, Microphthalmia-associated transcription factor (Homo sapiens, UniProt O75030); assay: reducers of TRPM1 reporter luminescence, concentration series – cell-based, SK-MEL-5, cherry-picked, set 3, MITF inhibitor project, dose response (AID 493073); assay type: functional;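 also: SK-MEL-5 melanoma cells with luciferase driven by the MITF target TRPM1 promoter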
T2 sequence (O75030 whole entry): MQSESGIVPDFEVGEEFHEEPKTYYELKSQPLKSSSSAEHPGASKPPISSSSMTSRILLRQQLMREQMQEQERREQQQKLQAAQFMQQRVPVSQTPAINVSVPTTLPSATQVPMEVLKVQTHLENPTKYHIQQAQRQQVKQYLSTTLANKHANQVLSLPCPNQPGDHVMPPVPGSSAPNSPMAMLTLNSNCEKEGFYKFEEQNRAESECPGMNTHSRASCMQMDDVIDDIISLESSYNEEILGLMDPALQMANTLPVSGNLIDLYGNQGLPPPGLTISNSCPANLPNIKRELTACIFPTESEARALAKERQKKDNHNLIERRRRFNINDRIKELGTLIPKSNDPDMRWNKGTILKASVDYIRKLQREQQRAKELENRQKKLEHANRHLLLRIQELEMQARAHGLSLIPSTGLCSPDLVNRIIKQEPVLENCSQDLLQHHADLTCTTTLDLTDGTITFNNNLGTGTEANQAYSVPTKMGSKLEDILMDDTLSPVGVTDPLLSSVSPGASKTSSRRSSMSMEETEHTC

Nonstructural protein 1 = Nonstructural protein 1 (Influenza A virus, UniProt Q194T2); assay type: functional, Influenza A virus (A/California/07/2009(H1N1))
Nonstructural protein 1, sequence (Q194T2 whole entry): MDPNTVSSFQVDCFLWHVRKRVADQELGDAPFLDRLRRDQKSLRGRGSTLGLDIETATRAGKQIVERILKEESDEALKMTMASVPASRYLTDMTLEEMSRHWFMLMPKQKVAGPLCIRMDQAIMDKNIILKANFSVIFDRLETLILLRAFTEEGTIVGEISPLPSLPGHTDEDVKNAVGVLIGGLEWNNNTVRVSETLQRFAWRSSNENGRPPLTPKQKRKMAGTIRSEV

Mucolipin-3 = Mucolipin-3 (Homo sapiens, UniProt Q8TDD5); assay: Dose response cell-based high-throughput screening assay for agonists of the transient receptor potential channel ML3 (TRPML3). [Related pubchem assays: 1526, 1424, 1448 ]; assay type: functional
Mucolipin-3, sequence (Q8TDD5 whole entry): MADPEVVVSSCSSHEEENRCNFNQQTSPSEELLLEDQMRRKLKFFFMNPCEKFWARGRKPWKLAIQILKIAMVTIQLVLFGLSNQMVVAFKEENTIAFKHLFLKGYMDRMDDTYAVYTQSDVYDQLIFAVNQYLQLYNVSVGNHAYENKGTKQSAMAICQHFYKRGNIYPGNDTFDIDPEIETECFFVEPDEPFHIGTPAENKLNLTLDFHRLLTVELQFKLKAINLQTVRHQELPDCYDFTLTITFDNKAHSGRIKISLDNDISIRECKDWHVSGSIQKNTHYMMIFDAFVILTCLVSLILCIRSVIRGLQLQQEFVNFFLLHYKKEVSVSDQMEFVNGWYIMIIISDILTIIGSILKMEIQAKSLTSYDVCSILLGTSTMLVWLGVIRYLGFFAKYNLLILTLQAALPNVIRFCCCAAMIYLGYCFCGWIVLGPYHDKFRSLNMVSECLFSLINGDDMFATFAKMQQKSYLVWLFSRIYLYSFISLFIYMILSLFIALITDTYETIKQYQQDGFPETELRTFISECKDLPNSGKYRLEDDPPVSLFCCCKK

[19] = viability inhibitors of stage V gametocytes – luminescence, dose response (AID 1117278); assay type: functional, cell-based;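 also: gametocytes exposed to compound for 24 hours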
Ion channel NompC = Ion channel NompC (Danio rerio, UniProt Q7T1G6); assay: Fluorescence counterscreen assay for TRPML3 agonists: dose response cell-based high-throughput screening assay to identify agonists of the transient receptor potential channel N1 (TRPN1). [Related pubchem assays: 1526, 1424, 1448 ]; assay type: functional
[20] = viability loss in human Jurkat cells – cell-based, luminescence, cytotoxicity control for P. falciparum gametocyte viability project, dose response (AID 1117277); assay type: functional;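 also: potency reflects loss of cellular ATP meaning fewer viable cells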
[21] = IC50 of insulin release inhibition, rat insulinoma INS-1E line, 5 mM glucose, cell-based (AID 1117331); assay type: functional
cells = assay type: functional, cell-based; conditions: INS-1E
[22] = Potency on glucagon-like peptide 1 release, dose-response in NCI-H716 cell line, half maximal inhibitory concentration (AID 1117344); assay type: functional, cell-based
[23] = glucagon-like peptide-1 release potency in STC-1, concentration-response, half-maximal inhibitory concentration in the STC-1 line (AID 1117345); assay type: functional, cell-based

CC(=O)NC1C(=O)N=C(SCC(=O)NC(C)c2ccccc2)NC1=O (stereo unspecified)
EC50 [1]: 1.67 µM (not active)

CC(=O)N1CCN(c2ccc(NCc3ccc(C)s3)cc2)CC1
IC50 (Large T antigen): 3.48 µM (active)
IC50 (Protein Tat): > 100 µM (active)
IC50 [2]: 29.7 µM (active)

COc1ccc(N2CCN(CC(=O)Nc3ccccc3C(=O)NCc3ccccc3)CC2)cc1
IC50 [3]: 3.67 µM (active)
IC50 [4]: 3.53 µM (active)

COC1=C(Nc2ccccc2)C(=O)c2ccccc2C1=O
AC50 [5]: 41.9 µM (active)
AC50 [6]: 41.5 µM (active)
AC50 [7]: 6.45 µM (active)
AC50 [8]: 7.24 µM (active)
AC50 [9]: 43.4 µM (active)
AC50 [10]: 12.5 µM (active)
AC50 [11]: 13.9 µM (active)
AC50 [12]: > 70 µM (inactive)
AC50 [13]: 5.17 µM (active)
AC50 [14]: 3.1 µM (active)
AC50 [15]: 12.5 µM (active)
AC50 [16]: 3.54 µM (active)
AC50 [17]: > 70 µM (inactive)
AC50 (INS1): 5.64 µM (active)
AC50 [18]: 4.53 µM (active)
IC50 (Nonstructural protein 1): 12 µM (active)

CCN(C(=O)c1cnc(OC)cc1C(F)(F)F)c1ccc(Cl)cc1Cl
EC50 (Mucolipin-3): 4.59 µM (active)
IC50 [19]: > 109 µM (inactive)
EC50 (Ion channel NompC): 8.86 µM (active)
IC50 [20]: > 83.3 µM (inactive)

Oc1ccccc1 [PHENOL]
IC50 [21]: > 33.3 µM (inactive)
IC50 (cells): > 33.3 µM (inactive)

CC(C)(C)CC(C)(C)c1ccc(O)c(Cc2ccc(Cl)cc2Cl)c1 [CLOFOCTOL]
IC50 [22]: 9.07 µM (inactive)
IC50 [21]: > 33.3 µM (inactive)
IC50 [23]: 0.544 µM (active)
